Experimental data reported in patent US9572862B2, “Methods for promoting lipolysis and oxidation in liver and adipose tissue using catestatin” (The Regents of the University of California, priority 2012, dated 2017).
“Also recorded” adds a separate entry of the source. No end group written: not given here.

Legend:
[1] = Plasma CST level (ELISA) after CST administration; assay type: in vivo; settings: WT mice on NCD, CST 5 μg/g BW i.p./day for 12 days
Procedure: (§1) FIG. 1. Plasma parameters of wild-type (WT) and Chga-KO mice treated with saline or CST. (A) Plasma CST from saline or CST (5 μg/g BW, i.p./day) treated WT mice (28 week old) on normal chow (NCD) and high fat diet (60% fat for 16 weeks) as well as from Chga-KO mice (28 week old) on NCD. Body weights (B) and epididymal fat pad size normalized to body weight (C) in 28 week old WT and Chga-KO mice treated with saline or CST for 12 days. Plasma triglyceride (TG) (D), glycerol (E), non-esterified fatty acids (NEFA) (F), and leptin (G) in 28 week old WT and Chga-KO mice after treatment with saline or CST for 12 days. (H) Leptin in adipocyte culture media after treatment with saline or CST.
Adult male (7 month old) WT (31.8±1.2 g) and Chga-KO (39.2±1.5 g) mice in the mixed genetic background (129SvJ×C57BL/6) were studied. Both genotypes were generated from the original founder carrying mixed genotype (50% 129SvJ, 50% C57BL/6) and were maintained by sibling mating. Animals were kept in a 12 hr dark/light cycle and fed standard chow ad libitum. Male C57BL/6 mice, 8 week old, were fed 60% high fat diet (D12492: Research Diets, Inc., New Brunswick) for 16 weeks before using for experiments. […]
Mice were fasted for 12 hr prior to blood draw. […] Media from the explant cultures and mouse serum were analysed for glycerol and NEFA as a measure of lipolysis. […]

Chga-KO mice = assay: Chronic CST administration to Chga-KO mice: adiposity, plasma lipids, leptin; assay type: in vivo
Procedure: as §1
FIG. 2. Comparison of epididyaml fat pads between saline or CST-treated Chga-KO mice. Adipose tissue was compared after 12 days of treatment with saline (A) or CST (5 μg/g BW, i.p./day) (B). *indicates epididymal fat pad.
(§2) Adult male (7 month old) WT (31.8±1.2 g) and Chga-KO (39.2±1.5 g) mice in the mixed genetic background (129SvJ×C57BL/6) were studied. Both genotypes were generated from the original founder carrying mixed genotype (50% 129SvJ, 50% C57BL/6) and were maintained by sibling mating. Animals were kept in a 12 hr dark/light cycle and fed standard chow ad libitum. Male C57BL/6 mice, 8 week old, were fed 60% high fat diet (D12492: Research Diets, Inc., New Brunswick) for 16 weeks before using for experiments. Male leptin-deficient (C57BL/6J-Ob/Ob) mice from the Jackson Laboratory were maintained on a standard chow diet. The Institutional Animal Care and Utilization Committee approved all procedures. Chga-KO, DIO and Ob/Ob mice were treated daily with saline or CST (5 μg/g BW, i.p.; 12 days for Chga-KO mice and 16 days for DIO and Ob/Ob mice).
(§3) Mice were fasted for 12 hr prior to blood draw. Triglycerides (TG) and non-esterified fatty acids (NEFA) were assayed using kits from Wako Diagnostics (Richmond, Va.). Glycerol was assayed using a kit from Sigma (St Louis, Mo.). Media from the explant cultures and mouse serum were analysed for glycerol and NEFA as a measure of lipolysis. ELISA kits were used to determine plasma levels of leptin, adiponectin (Millipore, Billerica, Mass.) and CST (Bachem, Torrance, Calif.). For CST assay, plasma samples and reference standards were passed through mini C18 columns and the flow-through fractions were assayed. The same kits were used for measurements in culture media.

primary adipocytes = assay: Lipolytic glycerol release from primary adipocytes; assay type: cell-based, mice
Procedure: as §3
Primary adipocytes were isolated from epididymal fat pads essentially as described (43). Adipose tissues from WT and Chga-KO mice were minced in Krebs-Ringer bicarbonate-Hepes (KRBH) buffer, pH 7.4, containing 10 mM bicarbonate, 30 mM Hepes, 200 nM adenosine, 2.5 mM glucose and 1% fatty-acid-free BSA, and digested for 30-40 min with Type I collagenase (10 mg/g tissue; Invitrogen, Carlsbad, Calif.) with gentle swirling in a 37° C. incubator. The digestion mixture was then filtered through a nylon strainer and centrifuged at 400×g for 1 min. The oily layer (released from broken cells) above floating fat cells was skimmed off, and fat cells were recovered from the top and washed three times with warm KRBH.

db/db mice = assay: CST treatment of diabetic db/db mice; assay type: in vivo
Text: FIG. 15. […] Figures in parentheses indicate number of animals.

HFD-fed WT mice = assay: CST treatment of HFD-fed WT mice; assay type: in vivo
Text: FIG. 12. Metabolic phenotypes in HFD-fed CST-KO mice. (A) CST-KO mice eat more 60% HFD than WT. (B) CST-KO mice gained more weight than WT. (C) Heightened glucose resistance at baseline in CST-KO mice compared to WT mice. […] Figures in parentheses indicate number of animals.

DIO mice = assay: CST administration to DIO mice for 16 days; assay type: in vivo
Procedure: FIG. 7. Effects of CST administration to DIO and Ob/Ob mice on food intake, body weight, adipose tissue weight, and lipolysis. CST (5 μg/g BW, i.p./day) or saline was administered to DIO and Ob/Ob mice for 16 days. Food intake for DIO mice (A) and Ob/Ob mice (B) was measured every other day. Percent changes in final body weight and WAT mass (as % of body weight) were determined for DIO (C) and Ob/Ob (D) mice. Plasma glycerol (E) and NEFA (F) were quantified for DIO and Ob/Ob mice at the end of CST treatment.
as §2, §3

3T3-L1 adipocytes = assay: cAMP production in 3T3-L1 adipocytes; assay type: cell-based; settings: CST 100 nM, ISO 10 μM, 10 min
[2] = reference (8); cited from earlier work
[3] = CST 5 μg/g BW i.p./day for 12 days

SSMKLSFRARAYGFRGPGPQL [CST]
time plasma CST maintained at this level [1]: at least 4 hr | food intake (Chga-KO mice): did not increase food intake | body weight (Chga-KO mice; [3]): without affecting body weight | epididymal fat pad size (Chga-KO mice; [3]): reduced epididymal fat pad size to WT level | plasma NEFA level (Chga-KO mice; CST 12 days): increased | plasma TG levels (Chga-KO mice; CST 12 days): decreased plasma TG levels | plasma glycerol level (Chga-KO mice; CST 12 days): increased | plasma leptin (Chga-KO mice; CST 12 days): lowered plasma leptin to a level below WT | effect on the lipolytic effect of isoproterenol (primary adipocytes; adipocytes, with isoproterenol 10 μM): potentiated | glycerol release (lipolysis) (primary adipocytes; primary adipocytes, substance alone): stimulated glycerol release | glucose tolerance (GTT) (db/db mice; CST 10 μg/g/day for 14 days): improvement in glucose tolerance; also recorded: improved glucose tolerance | C-peptide level (db/db mice; CST 14 days): without lowering C-peptide levels; also recorded: No change in C-Peptide level | C-peptide/Insulin molar ratio (db/db mice; CST 14 days): increased; also recorded: higher C-Peptide/insulin molar ratio | plasma insulin level (db/db mice; CST 14 days (untreated db/db 20-30 nM)): 14 to 18 nM | basal plasma insulin level (HFD-fed WT mice): decreased; also recorded: reduced hyperinsulinemia | insulin sensitivity (HFD-fed WT mice): improvement in insulin sensitivity; also recorded: sensitive to insulin | food intake (DIO mice; CST 5 μg/g BW i.p./day 16 days): did not change | decrease in adipose tissue mass (DIO mice; CST 16 days): about 2 g | plasma concentration of NEFA (lipolysis) (DIO mice; CST 16 days): increased | plasma concentration of glycerol (lipolysis) (DIO mice; CST 16 days): increased | cAMP production (3T3-L1 adipocytes): not by CST | protease degradation [2]: susceptible to complete protease degradation
